For 13 molecules, IC50 results are on record in publication PMC10893060, “Synthesis and Study of the Structure–Activity Relationship of Antiproliferative N-Substituted Isosteviol-Based 1,3-Aminoalcohols” (Pharmaceuticals, 2024).

Usually IC50 stands for the midpoint of a concentration-inhibition curve.

What all share (assay type): cell-based
The subject of one test is MCF-7. The test is described as follows: MTT antiproliferative assay, MCF-7. The note with it: Homo sapiens, MCF7, 72 h, no IC50 calculated when less than 50% inhibition at 10 μM. The text has this: (§1) The antiproliferative activities of the prepared diterpene analogues were studied using an MTT assay on a panel of human adherent cancer lines, including cells from cervical (HeLa), breast (MDA-MB-231, MCF-7), and ovary cancers (A2780), as given in Figure 1 and Table S1 in the Supplementary Materials. A non-malignant fibroblast cell line (NIH/3T3) was also utilised to obtain preliminary information on the cancer selectivity of the tested compounds. Based on the obtained activities, some conclusions could be drawn regarding the structure–activity relationships (SARs). Since neither the key intermediate benzyl ester of hydroxylaldehyde 4 nor the N-Boc protected aminoalcohols (6, 7, 11, 12) or even compound 8 with a free carboxylic function exerted remarkable antiproliferative effects (except for 12 against A2780 ovarian cancer cells), we could conclude that the simultaneous presence of the ester function and the basic secondary amino function were essential for the inhibition of cell growth. […] All active molecules inhibited considerably the proliferation of non-malignant cells, which meant that most currently presented agents were not optimal for further investigations of their anticancer properties.
(§2) The growth-inhibitory effects of the isosteviol-based 1,3-aminoalcohols were determined by a standard MTT (3-(4,5-dimethylthiazol-2-yl)-2,5-diphenyltetrazolium bromide) assay on a panel containing five cell lines, including Hela (cervical cancer), MDA-MB-231 and MCF-7 (breast cancers), and A2780 ovarian cancer cells. All cell lines were purchased from the European Collection of Cell Cultures (Salisbury, UK). The cells were maintained in a minimal essential medium supplemented with 10% foetal bovine serum, 1% non-essential amino acids, and 1% penicillin–streptomycin at 37 °C in a humidified atmosphere containing 5% CO2. All media and supplements were obtained from Lonza Group Ltd. (Basel, Switzerland). Cancer cells were seeded into 96-well plates (5000 cells/well); after overnight incubation, the test compound was added in two different concentrations (10 µM and 30 µM) and incubated for another 72 h under cell-culturing conditions. In the next step, 20 μL of 5 mg/mL of an MTT solution was added to each well and incubated for a further 4 h. The medium was removed and the precipitated formazan crystals were dissolved in DMSO after 60 min of shaking at 37 °C. As a final step, the absorbance was measured at 545 nm by using a microplate reader. Untreated cells were included as controls. […] Two independent experiments were performed with five wells for each condition. Calculations were performed using the GraphPad Prism 10.0 software (GraphPad Software Inc., San Diego, CA, USA).

The test system of the next test is MDA-MB-231. The test is described as follows: MTT antiproliferative assay, MDA-MB-231. Conditions: Homo sapiens, 72 h, no IC50 calculated when less than 50% inhibition at 10 μM.
Excerpt: as §1, §2

Another test concerns HeLa. The test can be described thus: MTT antiproliferative assay, HeLa. Conditions: Homo sapiens, 72 h, no IC50 calculated when less than 50% inhibition at 10 μM.
Excerpt: as §1, §2

In a further test the test system is NIH/3T3. The test is described as follows: MTT assay on non-malignant fibroblasts. The note with it: Mus musculus, NIH3T3, 72 h, no IC50 calculated when less than 50% inhibition at 10 μM.
Excerpt: as §1, §2

The test system of another test is A2780. The test is described as follows: MTT antiproliferative assay, A2780. Conditions: Homo sapiens, 72 h, no IC50 calculated when less than 50% inhibition at 10 μM.
Excerpt: as §1, §2

Regarding `C[C@]12CCC3[C@](CC[C@@H]4[C@](C)(C(=O)OCc5ccccc5)CCC[C@@]34C)(C1)[C@H](C=O)[C@H]2O` (stereo partly drawn) [Compound 4, (4R,4aS,6aS,7S,8R,9S,11bS)-Benzyl 7-formyl-8-hydroxy-4,9,11b-trimethyltetradecahydro-6a,9-methanocyclohepta[a]naphthalene-4-carboxylate], the IC50 in the test on MCF-7, in the test on MDA-MB-231, with HeLa, in the test on NIH/3T3 and in the test with A2780 was over 10 µM each time.

Turning to `C[C@]12CCC3[C@](CC[C@@H]4[C@](C)(C(=O)OCc5ccccc5)CCC[C@@]34C)(C1)[C@H](CNCc1ccc(F)cc1)[C@H]2O` (stereo partly drawn) [Compound 5, (4R,4aS,6aS,7R,8R,9S,11bS)-Benzyl 7-(((4-fluorobenzyl)amino)methyl)-8-hydroxy-4,9,11b-trimethyltetradecahydro-6a,9-methanocyclohepta[a]naphthalene-4-carboxylate], the IC50 is 4.29 µM with MCF-7; 5.98 µM in the test with MDA-MB-231; 4.17 µM in the test on HeLa; 4.27 µM in the test with NIH/3T3; 4.57 µM with A2780.

For `CC(C)(C)OC(=O)N(Cc1ccc(F)cc1)C[C@@H]1[C@@H](O)[C@@]2(C)CCC3[C@]1(CC[C@@H]1[C@](C)(C(=O)OCc4ccccc4)CCC[C@@]31C)C2` (stereo partly drawn) [Compound 6, (4R,4aS,6aS,7R,8R,9S,11bS)-Benzyl 7-(((tert-butoxycarbonyl)(4-fluorobenzyl)amino)methyl)-8-hydroxy-4,9,11b-trimethyltetradecahydro-6a,9-methanocyclohepta[a]naphthalene-4-carboxylate], the IC50 in the test with MCF-7, with MDA-MB-231, with HeLa, with NIH/3T3 and in the test with A2780 was over 10 µM each time.

`CC(C)(C)OC(=O)N(Cc1ccc(F)cc1)C[C@@H]1[C@@H](O)[C@@]2(C)CCC3[C@]1(CC[C@@H]1[C@](C)(C(=O)O)CCC[C@@]31C)C2` (stereo partly drawn) [Compound 7, (4R,4aS,6aS,7R,8R,9S,11bS)-7-(((tert-butoxycarbonyl)(4-fluorobenzyl)amino)methyl)-8-hydroxy-4,9,11b-trimethyltetradecahydro-6a,9-methanocyclohepta[a]naphthalene-4-carboxylic Acid]: the IC50 with MCF-7, in the test with MDA-MB-231, in the test on HeLa, with NIH/3T3 and in the test on A2780 was over 10 µM each time.

With `C=CC(=O)OCCCCOC(=O)[C@]1(C)CCC[C@@]2(C)C3CC[C@@]4(C)C[C@]3(CC[C@H]12)[C@H](CN(Cc1ccc(F)cc1)C(=O)OC(C)(C)C)[C@H]4O` (stereo partly drawn) [Compound 11, (4R,4aS,6aS,7R,8R,9S,11bS)-4-(Acryloyloxy)butyl 7-(((tert-butoxycarbonyl)(4-fluorobenzyl)amino)methyl)-8-hydroxy-4,9,11b-trimethyltetradecahydro-6a,9-methanocyclohepta[a]naphthalene-4-carboxylate], the IC50 in the test with MCF-7, in the test with MDA-MB-231, in the test with HeLa, in the test on NIH/3T3 and with A2780 was over 10 µM throughout.

For the molecule `C=CC(=O)OCCC(=O)OCCCCOC(=O)[C@]1(C)CCC[C@@]2(C)C3CC[C@@]4(C)C[C@]3(CC[C@H]12)[C@H](CN(Cc1ccc(F)cc1)C(=O)OC(C)(C)C)[C@H]4O` (stereo partly drawn) [Compound 12, (4R,4aS,6aS,7R,8R,9S,11bS)-4-((3-(Acryloyloxy)propanoyl)oxy)butyl 7-(((tert-butoxycarbonyl)(4-fluorobenzyl)amino)methyl)-8-hydroxy-4,9,11b-trimethyltetradecahydro-6a,9-methanocyclohepta[a]naphthalene-4-carboxylate], the half-inhibitory concentration (IC50) in the test with MCF-7 was over 10 µM; in the test with MDA-MB-231 it was over 10 µM; in the test with HeLa it was over 10 µM; with NIH/3T3 it was over 10 µM; with A2780, 4.78 µM.

Consider `C[C@@H](NC[C@@H]1[C@@H](O)[C@@]2(C)CCC3[C@]1(CC[C@@H]1[C@](C)(C(=O)OCc4ccccc4)CCC[C@@]31C)C2)c1ccc(F)cc1` (stereo partly drawn) [Compound 15, (4R,4aS,6aS,7R,8R,9S,11bS)-Benzyl 7-((((R)-1-(4-fluorophenyl)ethyl)amino)methyl)-8-hydroxy-4,9,11b-trimethyltetradecahydro-6a,9-methanocyclohepta[a]naphthalene-4-carboxylate], for which the IC50 with MCF-7 was 4.2 µM; in the test on MDA-MB-231 it was 4.28 µM; in the test on HeLa, 4.18 µM; in the test on NIH/3T3, 4.8 µM; in the test on A2780 it was 3.91 µM.

As for `CC[C@@H](NC[C@@H]1[C@@H](O)[C@@]2(C)CCC3[C@]1(CC[C@@H]1[C@](C)(C(=O)OCc4ccccc4)CCC[C@@]31C)C2)c1ccccc1` (stereo partly drawn) [Compound 16, (4R,4aS,6aS,7R,8R,9S,11bS)-Benzyl 8-hydroxy-4,9,11b-trimethyl-7-((((R)-1-phenylpropyl)amino)methyl)tetradecahydro-6a,9-methanocyclohepta[a]naphthalene-4-carboxylate], the IC50 in the test with MCF-7 is 3.48 µM; in the test with MDA-MB-231 it was 4.79 µM; in the test on HeLa, 3.86 µM; in the test on NIH/3T3, 1.37 µM; with A2780 it was 4 µM.

Consider `CC[C@H](NC[C@@H]1[C@@H](O)[C@@]2(C)CCC3[C@]1(CC[C@@H]1[C@](C)(C(=O)OCc4ccccc4)CCC[C@@]31C)C2)c1ccccc1` (stereo partly drawn) [Compound 17, (4R,4aS,6aS,7R,8R,9S,11bS)-Benzyl 8-hydroxy-4,9,11b-trimethyl-7-((((S)-1-phenylpropyl)amino)methyl)tetradecahydro-6a,9-methanocyclohepta[a]naphthalene-4-carboxylate], for which the IC50 is 4.74 µM in the test with MCF-7; 4.04 µM in the test with MDA-MB-231; 4.45 µM with HeLa; 1.95 µM with NIH/3T3; 3.78 µM with A2780.

With `C[C@@H](NC[C@@H]1[C@@H](O)[C@@]2(C)CCC3[C@]1(CC[C@@H]1[C@](C)(C(=O)OCc4ccccc4)CCC[C@@]31C)C2)c1cccc2ccccc12` (stereo partly drawn) [Compound 18, (4R,4aS,6aS,7R,8R,9S,11bS)-Benzyl 8-hydroxy-4,9,11b-trimethyl-7-((((R)-1-(naphthalen-1-yl)ethyl)amino)methyl)tetradecahydro-6a,9-methanocyclohepta[a]naphthalene-4-carboxylate], the IC50 with MCF-7 was 4.85 µM; with MDA-MB-231, 4.63 µM; in the test with HeLa, 3.05 µM; in the test on NIH/3T3, 4.61 µM; in the test on A2780 it was 2.89 µM.

For the molecule `C[C@H](NC[C@@H]1[C@@H](O)[C@@]2(C)CCC3[C@]1(CC[C@@H]1[C@](C)(C(=O)OCc4ccccc4)CCC[C@@]31C)C2)c1cccc2ccccc12` (stereo partly drawn) [Compound 19, (4R,4aS,6aS,7R,8R,9S,11bS)-Benzyl 8-hydroxy-4,9,11b-trimethyl-7-((((S)-1-(naphthalen-1-yl)ethyl)amino)methyl)tetradecahydro-6a,9-methanocyclohepta[a]naphthalene-4-carboxylate], the IC50 with MCF-7 was 5.59 µM; in the test with MDA-MB-231, 7.29 µM; in the test on HeLa, 6.08 µM; in the test on NIH/3T3, 5.44 µM; with A2780 it was 4.41 µM.

In the case of `CC12CCC3C(CC[C@@H]4[C@](C)(C(=O)OCc5ccccc5)CCC[C@@]34C)(C1)[C@H](CNCCCn1ccnc1)[C@H]2O` (stereo partly drawn) [Compound 20, (4R,4aS,7R,8R,11bS)-Benzyl 7-(((3-(1H-imidazol-1-yl)propyl)amino)methyl)-8-hydroxy-4,9,11b-trimethyltetradecahydro-6a,9-methanocyclohepta[a]naphthalene-4-carboxylate], the IC50 in the test with MCF-7 is 1.37 µM; in the test on MDA-MB-231, 1.78 µM; in the test with HeLa it was 1.99 µM; with NIH/3T3, 4.78 µM; in the test on A2780, 3.74 µM.

As to `COC(=O)[C@]1(C)CCC[C@@]2(C)C3CC[C@@]4(C)C[C@]3(CC[C@H]12)[C@H](CN[C@H](C)c1ccc(F)cc1)[C@H]4O` (stereo partly drawn) [Compound 23, (4R,4aS,6aS,7R,8R,9S,11bS)-Methyl 7-((((R)-1-(4-fluorophenyl)ethyl)amino)methyl)-8-hydroxy-4,9,11b-trimethyltetradecahydro-6a,9-methanocyclohepta[a]naphthalene-4-carboxylate], the IC50 was 3.16 µM with MCF-7; 5.08 µM in the test with MDA-MB-231; 4.16 µM in the test on HeLa; 1.79 µM in the test with NIH/3T3; 4.24 µM in the test on A2780.
